Measurements as given in patent US20250352520A1, “USE OF DEXPRAMIPEXOLE FOR THE TREATMENT OF EOSINOPHILIC COPD” (Areteia Therapeutics, Inc., priority 2024, published 2025).

Conditions: Week 4; >=50% AEC reduction at Week 16

CCCN[C@@H]1CCc2nc(N)sc2C1 [Dexpramipexole, (6R)-2-amino-4,5,6,7-tetrahydro-6-(propylamino)benzothiazole]
Pre-BD FEF25-75 % change from baseline, Max: 41%
Pre-BD FEF25-75 % change from baseline, Mean ± SD: 11.4 ± 25.76%
Pre-BD FEF25-75 % change from baseline, Median: −2.2%
Pre-BD FEF25-75 % change from baseline, Min: −5%
Pre-BD FEF25-75 % change from baseline, Q1: −5%
Pre-BD FEF25-75 % change from baseline, Q3: 41%
Pre-BD FEF25-75 Observed, Max: 1030 mL/s
Pre-BD FEF25-75 Observed, Mean ± SD: 710.0 ± 446.43 mL/s
Pre-BD FEF25-75 Observed, Median: 900.0 mL/s
Pre-BD FEF25-75 Observed, Min: 200 mL/s
Pre-BD FEF25-75 Observed, Q1: 200 mL/s
Pre-BD FEF25-75 Observed, Q3: 1030 mL/s
Pre-BD FEF25-75 change from baseline, Max: 300 mL/s
Pre-BD FEF25-75 change from baseline, Mean ± SD: 90.0 ± 181.93 mL/s
Pre-BD FEF25-75 change from baseline, Median: -10.0 mL/s
Pre-BD FEF25-75 change from baseline, Min: -20 mL/s
Pre-BD FEF25-75 change from baseline, Q1: -20 mL/s
Pre-BD FEF25-75 change from baseline, Q3: 300 mL/s
Pre-BD FEV1 % change from baseline, Max: 62%
Pre-BD FEV1 % change from baseline, Mean ± SD: 24.8 ± 32.69%
Pre-BD FEV1 % change from baseline, Median: 9.7%
Pre-BD FEV1 % change from baseline, Min: 2%
Pre-BD FEV1 % change from baseline, Q1: 2%
Pre-BD FEV1 % change from baseline, Q3: 62%
Pre-BD FEV1 Observed, Max: 2110 mL
Pre-BD FEV1 Observed, Mean ± SD: 1540.0 ± 678.16 mL
Pre-BD FEV1 Observed, Median: 1720.0 mL
Pre-BD FEV1 Observed, Min: 790 mL
Pre-BD FEV1 Observed, Q1: 790 mL
Pre-BD FEV1 Observed, Q3: 2110 mL
Pre-BD FEV1 change from baseline, Max: 810 mL
Pre-BD FEV1 change from baseline, Mean ± SD: 306.7 ± 436.16 mL
Pre-BD FEV1 change from baseline, Median: 70.0 mL
Pre-BD FEV1 change from baseline, Min: 40 mL
Pre-BD FEV1 change from baseline, Q1: 40 mL
Pre-BD FEV1 change from baseline, Q3: 810 mL
Pre-BD FVC % change from baseline, Max: 32%
Pre-BD FVC % change from baseline, Mean ± SD: 15.7 ± 14.81%
Pre-BD FVC % change from baseline, Median: 11.4%
Pre-BD FVC % change from baseline, Min: 3%
Pre-BD FVC % change from baseline, Q1: 3%
Pre-BD FVC % change from baseline, Q3: 32%
Pre-BD FVC Observed, Max: 3330 mL
Pre-BD FVC Observed, Mean ± SD: 2790.0 ± 497.59 mL
Pre-BD FVC Observed, Median: 2690.0 mL
Pre-BD FVC Observed, Min: 2350 mL
Pre-BD FVC Observed, Q1: 2350 mL
Pre-BD FVC Observed, Q3: 3330 mL
Pre-BD FVC change from baseline, Max: 810 mL
Pre-BD FVC change from baseline, Mean ± SD: 380.0 ± 379.87 mL
Pre-BD FVC change from baseline, Median: 240.0 mL
Pre-BD FVC change from baseline, Min: 90 mL
Pre-BD FVC change from baseline, Q1: 90 mL
Pre-BD FVC change from baseline, Q3: 810 mL
Pre-BD Peak Flow % change from baseline, Max: 143%
Pre-BD Peak Flow % change from baseline, Mean ± SD: 63.4 ± 69.42%
Pre-BD Peak Flow % change from baseline, Median: 28.2%
Pre-BD Peak Flow % change from baseline, Min: 18%
Pre-BD Peak Flow % change from baseline, Q1: 18%
Pre-BD Peak Flow % change from baseline, Q3: 143%
Pre-BD Peak Flow Observed, Max: 382 L/min
Pre-BD Peak Flow Observed, Mean ± SD: 260.7 ± 108.49 L/min
Pre-BD Peak Flow Observed, Median: 227.0 L/min
Pre-BD Peak Flow Observed, Min: 173 L/min
Pre-BD Peak Flow Observed, Q1: 173 L/min
Pre-BD Peak Flow Observed, Q3: 382 L/min
Pre-BD Peak Flow change from baseline, Max: 225 L/min
Pre-BD Peak Flow change from baseline, Mean ± SD: 100.7 ± 108.29 L/min
Pre-BD Peak Flow change from baseline, Median: 50.0 L/min
Pre-BD Peak Flow change from baseline, Min: 27 L/min
Pre-BD Peak Flow change from baseline, Q1: 27 L/min
Pre-BD Peak Flow change from baseline, Q3: 225 L/min
